In PubChem BioAssay (NCI):
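Values below derive from 48-hour exposures of cells grown in 96-well plates, with endpoints linearly interpolated between the two concentrations bracketing the appropriate inhibition level. The concentration for 50% growth inhibition is given as GI50. TGI denotes the concentration required for complete inhibition of growth.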

What was measured:
Test in all cases: NCI anticancer screen, dose series, 48 h
SF-539 CNS = tested on: SF-539 CNS
NCI-H460 lung = tested on: NCI-H460 lung
NCI-H23 lung = tested on: NCI-H23 lung
SF-268 CNS = tested on: SF-268 CNS
SK-MEL-5 melanoma = tested on: SK-MEL-5 melanoma
K-562 leukemia = tested on: K-562 leukemia
HOP-92 NSCLC = tested on: HOP-92 NSCLC
RXF 393 renal = tested on: RXF 393 renal
BT-549 breast = tested on: BT-549 breast
SN12C renal = tested on: SN12C renal

Row | SMILES | TGI (SF-539 CNS) | TGI (NCI-H460 lung) | TGI (NCI-H23 lung) | TGI (SF-268 CNS) | TGI (SK-MEL-5 melanoma) | TGI (K-562 leukemia) | TGI (HOP-92 NSCLC) | GI50 (SF-539 CNS) | GI50 (NCI-H460 lung) | GI50 (NCI-H23 lung) | GI50 (RXF 393 renal) | TGI (RXF 393 renal) | GI50 (SF-268 CNS) | GI50 (SK-MEL-5 melanoma) | GI50 (BT-549 breast) | TGI (BT-549 breast) | GI50 (HOP-92 NSCLC) | GI50 (SN12C renal) | TGI (SN12C renal) | GI50 (K-562 leukemia)
1 | C=C1CC2(CCS(=O)(=O)c3ccccc32)OC1=O (configuration not stated) | 18.1 µM | 35.3 µM | 27.7 µM | 38.4 µM | 27 µM | 34.4 µM | 14.2 µM | – | – | – | – | – | – | – | – | – | – | – | – | –
2 | Nc1ncn([C@H]2C[C@H](OP(=O)(O)OC[C@H]3O[C@@H](n4cnc5c(=O)[nH]c(N)nc54)C[C@@H]3O)[C@@H](CO)O2)c(=O)n1 | > 100 µM | > 100 µM | > 100 µM | > 100 µM | > 100 µM | – | > 100 µM | > 100 µM | 7.44 µM | > 100 µM | 12.2 µM | > 100 µM | > 100 µM | > 100 µM | > 100 µM | > 100 µM | > 100 µM | 51.4 µM | > 100 µM | –
3 | COc1ccc2c(c1)C(c1cc(OC)c3c(c1)OCO3)C1=C(COC1=O)N2 (configuration not stated) | – | > 20.4 µM | > 64.9 µM | > 89.2 µM | 1.9 µM | > 100 µM | > 100 µM | 0.318 µM | 0.348 µM | 0.346 µM | – | – | 0.691 µM | 0.262 µM | 2.08 µM | > 100 µM | 23.3 µM | 0.684 µM | > 100 µM | 0.264 µM
4 | CN(/N=C\c1ccnc2ccccc12)c1ccccc1 | 71.6 µM | 55.5 µM | 48.6 µM | > 100 µM | 31.2 µM | 51.4 µM | 50 µM | – | – | – | – | 77.3 µM | – | – | – | – | – | – | > 100 µM | –
5 | COc1cc2nc3cc([N+](=O)[O-])ccc3c(NCCNCC(C)O)c2cc1OC (configuration not stated) | 2.47 µM | 1.6 µM | 3.07 µM | 2.46 µM | – | – | 2.31 µM | 0.693 µM | 0.366 µM | 0.554 µM | 0.641 µM | 2.34 µM | 0.469 µM | – | 1.75 µM | 3.9 µM | 0.367 µM | – | – | –
6 | Cc1ccc(C(=O)NCCN(C)C)c2nc3ccccc3cc12 | – | 14.7 µM | – | – | 2.95 µM | > 100 µM | > 100 µM | – | – | – | – | 3.29 µM | – | – | – | – | – | – | 10.2 µM | –
7 | O=C1C(=O)N(c2ccc(Cl)cc2)C(=O)C(=Nc2cccc3c(=O)[nH][nH]c(=O)c23)C1c1nc2ccccc2o1 (configuration not stated) | > 100 µM | > 100 µM | > 100 µM | > 100 µM | > 100 µM | > 100 µM | > 100 µM | – | – | – | – | – | – | – | – | – | – | – | > 100 µM | –
8 | Cn1cc(C2=C(c3cn(CCCCCO)c4ccccc34)C(=O)NC2=O)c2ccccc21 | 8.55 µM | 14.8 µM | 16.5 µM | 19.1 µM | 6.82 µM | > 25 µM | – | 3.16 µM | 6.01 µM | 5.34 µM | 3.51 µM | 9.61 µM | 6.34 µM | 3.29 µM | 4 µM | 10.9 µM | – | 5.55 µM | 19.5 µM | 2.16 µM
9 | COC12OCCN(C)C1=CC(=O)C1(C)N=NCC12 (configuration not stated) | > 100 µM | > 100 µM | > 100 µM | – | > 100 µM | > 100 µM | > 100 µM | – | – | – | – | > 100 µM | – | – | – | – | – | – | > 100 µM | –
10 | NCCSC(c1ccccc1)(c1ccccc1)c1ccccc1 | 3.21 µM | 4.01 µM | 13.6 µM | 11.2 µM | 2.25 µM | 1.61 µM | – | 1.36 µM | 1.31 µM | 3.38 µM | – | – | 0.966 µM | 1.01 µM | 3.51 µM | 14.2 µM | – | 0.739 µM | 11.7 µM | 0.322 µM
11 | Cc1ccc(Sc2ccccc2N)cc1 | 87.9 µM | > 100 µM | 93.3 µM | > 100 µM | 45.5 µM | > 100 µM | 54.7 µM | – | – | – | – | 47.2 µM | – | – | – | – | – | – | > 100 µM | –
12 | CN1C(=O)C2(c3ccccc31)C1CC3C(CO1)C1C2C3(CO)CN1C#N (configuration not stated) | – | > 100 µM | > 100 µM | > 100 µM | > 100 µM | > 100 µM | > 100 µM | – | – | – | – | > 100 µM | – | – | – | > 100 µM | – | – | > 100 µM | –
13 | CCCCCCCCCCOC(=O)NCCC | > 100 µM | 65.9 µM | > 100 µM | > 100 µM | 52.9 µM | > 100 µM | 48.1 µM | – | – | – | – | 39.9 µM | – | – | – | – | – | – | 86.3 µM | –
14 | CC(=O)OCC1OC(n2ncc(=O)[nH]c2=O)C(OC(C)=O)C1OC(C)=O (configuration not stated) | > 100 µM | > 100 µM | > 100 µM | > 100 µM | > 100 µM | > 100 µM | > 100 µM | – | – | – | – | > 100 µM | – | – | – | – | – | – | > 100 µM | –
15 | COc1cccc(C2SCc3nc4ccccc4n32)c1 (configuration not stated) | > 100 µM | > 100 µM | > 100 µM | > 100 µM | 65.7 µM | > 100 µM | 69.8 µM | – | – | – | – | > 100 µM | – | – | – | – | – | – | > 100 µM | –
16 | O=C(O)CN(c1ccc(F)cc1)S(=O)(=O)c1ccccc1 | > 100 µM | > 100 µM | > 100 µM | > 100 µM | > 100 µM | > 100 µM | > 100 µM | – | – | – | – | > 100 µM | – | – | – | – | – | – | > 100 µM | –
17 | Cc1ccc(S(=O)(=O)OCCOCCOCCOCCOCCOS(=O)(=O)c2ccc(C)cc2)cc1 | – | > 100 µM | > 100 µM | > 100 µM | 65 µM | > 100 µM | 99.3 µM | – | – | – | – | > 100 µM | – | – | – | – | – | – | > 100 µM | –
18 | [Cu+2].[NH-]C(CC(=O)O)C(=O)O.[NH-]C(CC(=O)O)C(=O)O (configuration not stated) | – | > 100 µM | > 100 µM | > 100 µM | > 100 µM | > 100 µM | > 100 µM | – | > 100 µM | > 100 µM | > 100 µM | > 100 µM | > 100 µM | 26.5 µM | > 100 µM | > 100 µM | > 100 µM | > 100 µM | > 100 µM | > 100 µM
19 | N#CC1=C(N)Oc2c(sc3c(Br)cccc23)C1c1ccc(Cl)cc1 (configuration not stated) | – | – | 4.86 µM | 7.62 µM | 2.72 µM | 3.54 µM | 7.29 µM | – | – | 0.821 µM | 0.553 µM | 3.01 µM | 0.917 µM | 0.559 µM | 0.962 µM | 12.7 µM | 2 µM | 2.88 µM | 17.6 µM | 0.322 µM
